From ChEMBL document CHEMBL1144692, “Alkaloids from stems and leaves of Stemona japonica and their insecticidal activities” (J Nat Prod, 2008)
pEC50, pIC50: −log10 of the molar value. Active and inactive are the calls of the source. The calls are words filed in the database; no cut-off is given here.

How the values were obtained:
[1] = molecular target: T1, Nicotinic acetylcholine receptor alpha1 subunit (Heliothis virescens) (UniProt O46128); test: Antagonist activity at nAChR in Heliothis virescens neuronal cells assessed as blockade of acetylcholine-induced response at 10 uM by voltage clamp technique; format: functional, cell-based; set-up: scale not given: the % may be the effect or the level left
T1 sequence (whole entry): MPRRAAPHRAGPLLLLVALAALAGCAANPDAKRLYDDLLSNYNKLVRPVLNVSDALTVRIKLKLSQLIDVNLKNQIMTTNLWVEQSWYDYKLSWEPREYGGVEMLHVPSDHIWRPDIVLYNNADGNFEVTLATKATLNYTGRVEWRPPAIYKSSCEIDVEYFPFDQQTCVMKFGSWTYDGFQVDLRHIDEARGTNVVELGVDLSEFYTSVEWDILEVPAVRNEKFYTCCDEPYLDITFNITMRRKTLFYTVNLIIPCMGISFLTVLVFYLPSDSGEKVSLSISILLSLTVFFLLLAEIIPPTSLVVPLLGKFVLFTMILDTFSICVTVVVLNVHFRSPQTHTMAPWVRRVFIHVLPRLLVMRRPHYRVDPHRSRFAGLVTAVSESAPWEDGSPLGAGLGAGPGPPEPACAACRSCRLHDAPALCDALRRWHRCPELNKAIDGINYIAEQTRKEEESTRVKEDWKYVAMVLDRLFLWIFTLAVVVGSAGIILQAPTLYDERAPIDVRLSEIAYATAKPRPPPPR

[2] = molecular target: T2, Nicotinic acetylcholine receptor alpha1 subunit (Heliothis virescens, UniProt O46128); test: Agonist activity at nAChR in Heliothis virescens neuronal cells by voltage clamp technique; format: functional, cell-based
T2 sequence (O46128 whole entry): T1 sequence (whole entry)

[3] = system: Spodoptera frugiperda; test: Insecticidal activity against Spodoptera frugiperda at 500 g/ha; format: functional, organism-based
[4] = system: Myzus persicae; test: Insecticidal activity against Myzus persicae at 500 g/ha; format: functional, organism-based
[5] = molecular target: T2, Nicotinic acetylcholine receptor alpha1 subunit; test: Antagonist activity at nAChR in Heliothis virescens neuronal cells by voltage clamp technique; format: functional, cell-based
[6] = system: Spodoptera frugiperda; test: Insecticidal activity against Spodoptera frugiperda at 4 to 500 g/ha; format: functional, organism-based
[7] = system: Myzus persicae; test: Insecticidal activity against Myzus persicae at 4 to 500 g/ha; format: functional, organism-based

Q: With `CC1=C[C@H]([C@H]2O[C@@H]3CCCN4[C@@H](CC[C@H]4[C@@H]4C[C@H](C)C(=O)O4)[C@H]3[C@@H]2C)OC1=O` (relative stereo) as the molecule, how does the Activity [1] read?
A: The Activity was 90%.

Q: Which results are given for `CCCC[C@]12[C@H]3C[C@H]4[C@H]5[C@H](C)C(C6OC(=O)C(C)=C6OC)O[C@]5(O3)[C@@H]1[C@H](O)CN42` (stereo partly drawn) [6beta-hydroxystemofoline]?
A: pEC50 [2]: 6.80; Activity [3]: inactive; Activity [4]: inactive

Q: With `CCCC[C@]12[C@@H]3C[C@H]4[C@H]5[C@H](C)C(C6OC(=O)C(CO)=C6OC)O[C@]5(O3)[C@@H]1CCN42` (some centres undefined) [16-hydroxystemofoline] as the molecule, how does the pEC50 [2] read?
A: The pEC50 was 7.92.

Q: How did the pIC50 [5] turn out when `COC1=C(C)C(=O)O/C1=C(\O)[C@@H](C)[C@H]1[C@@H](O)CCCN2[C@H]1CC[C@H]2[C@@H]1C[C@H](C)C(=O)O1` [PROTOSTEMODIOL] was run?
A: Its pIC50 is 5.00.

Q: `CCCC[C@@]12C3CCN1[C@H]1C[C@H]2O[C@@]32O/C(=C3\OC(=O)C(C)=C3OC)[C@@H](C)[C@H]12` [STEMOFOLINE] was tested. Which pEC50 [2] did it give?
A: Its pEC50 is 7.30.

Q: And the Activity [6]?
A: Its Activity is “Active”.

Q: And the Activity [7]?
A: The Activity was “Active”.
